Measurements as given in ChEMBL document CHEMBL1201862, “PubChem BioAssay data set” (2004).
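All cell lines were grown in 96-well plates and treated with compound for 48 hours. At the GI50, growth is halved.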 Activity calls are given as the source filed them. Cut-off read from the data, not from the text of the source: active = GI50 up to about 1.1 µM and inactive = higher.

What was measured:
Assay in all cases: growth of human tumour cells (NCI), 48 h
SK-MEL-5 = system: SK-MEL-5
K562 = system: K562
HCT-116 = system: HCT-116
M19-MEL = system: M19-MEL
M14 = system: M14
XF498 = system: XF498
SF-295 = system: SF-295
UO-31 = system: UO-31
SK-MEL-2 = system: SK-MEL-2
LOX IMVI = system: LOX IMVI
A549 = system: A549
OVCAR-8 = system: OVCAR-8
CAKI-1 = system: CAKI-1
HOP-62 = system: HOP-62
SNB-19 = system: SNB-19
EKVX = system: EKVX
DMS-273 = system: DMS-273
HCT-15 = system: HCT-15
SK-MEL-28 = system: SK-MEL-28
HCC 2998 = system: HCC 2998
HL-60 = system: HL-60
NCI-H226 = system: NCI-H226
NCI-H23 = system: NCI-H23
KM12 = system: KM12
SK-OV-3 = system: SK-OV-3
CCRF-CEM = system: CCRF-CEM
LXFL 529 = system: LXFL 529
HT-29 = system: HT-29
TK-10 = system: TK-10
ACHN = system: ACHN
MOLT-4 = system: MOLT-4
COLO 205 = system: COLO 205
OVCAR-3 = system: OVCAR-3
DMS-114 = system: DMS-114
HOP-92 = system: HOP-92
IGROV-1 = system: IGROV-1
UACC-257 = system: UACC-257
SF-539 = system: SF-539
SW-620 = system: SW-620
UACC-62 = system: UACC-62
RXF 393 = system: RXF 393
SF-268 = system: SF-268
SNB-78 = system: SNB-78
NCI-H460 = system: NCI-H460
786-0 = system: 786-0
SN12C = system: SN12C
OVCAR-5 = system: OVCAR-5
DLD-1 = system: DLD-1
Malme-3M = system: Malme-3M
KM-20L2 = system: KM-20L2
NCI-H522 = system: NCI-H522
HOP-18 = system: HOP-18
U-251 = system: U-251
SNB-75 = system: SNB-75
OVCAR-4 = system: OVCAR-4
RPMI-8226 = system: RPMI-8226
A498 = system: A498

## Cc1nc(Nc2ccccc2)sc1C(=O)CC(=O)C(=O)NC12CC3CC(CC(C3)C1)C2
SK-MEL-5
  GI50: 74.5 µM (inactive)
K562
  GI50: > 100 µM (inactive)
HCT-116
  GI50: > 100 µM (inactive)
M19-MEL
  GI50: > 100 µM (inactive)
M14
  GI50: > 100 µM (inactive)
XF498
  GI50: > 100 µM (inactive)
SF-295
  GI50: 71.3 µM (inactive)
UO-31
  GI50: 92.3 µM (inactive)
SK-MEL-2
  GI50: > 100 µM (inactive)
LOX IMVI
  GI50: 50.4 µM (inactive)
A549
  GI50: > 100 µM (inactive)
OVCAR-8
  GI50: > 100 µM (inactive)
CAKI-1
  GI50: 65.2 µM (inactive)
HOP-62
  GI50: 83.2 µM (inactive)
SNB-19
  GI50: > 100 µM (inactive)
EKVX
  GI50: 7.21 µM (inactive)
DMS-273
  GI50: > 100 µM (inactive)
HCT-15
  GI50: > 100 µM
SK-MEL-28
  GI50: > 100 µM (inactive)
HCC 2998
  GI50: > 100 µM (inactive)
HL-60
  GI50: 92.3 µM (inactive)
NCI-H226
  GI50: > 100 µM (inactive)
NCI-H23
  GI50: > 100 µM (inactive)
KM12
  GI50: > 100 µM (inactive)
SK-OV-3
  GI50: > 100 µM (inactive)
CCRF-CEM
  GI50: 82.4 µM (inactive)
LXFL 529
  GI50: 99.5 µM (inactive)
HT-29
  GI50: > 100 µM (inactive)
TK-10
  GI50: > 100 µM (inactive)
ACHN
  GI50: > 100 µM (inactive)
MOLT-4
  GI50: > 100 µM (inactive)
COLO 205
  GI50: > 100 µM (inactive)
OVCAR-3
  GI50: > 100 µM (inactive)
DMS-114
  GI50: 78.7 µM (inactive)
HOP-92
  GI50: 23 µM (inactive)
IGROV-1
  GI50: 84.5 µM (inactive)
UACC-257
  GI50: > 100 µM (inactive)
SF-539
  GI50: > 100 µM (inactive)
SW-620
  GI50: > 100 µM (inactive)
UACC-62
  GI50: 41.4 µM (inactive)
RXF 393
  GI50: 54.6 µM (inactive)
SF-268
  GI50: > 100 µM (inactive)
SNB-78
  GI50: > 100 µM (inactive)
NCI-H460
  GI50: > 100 µM (inactive)
786-0
  GI50: > 100 µM (inactive)
SN12C
  GI50: > 100 µM (inactive)
OVCAR-5
  GI50: > 100 µM (inactive)
DLD-1
  GI50: 80.5 µM (inactive)
Malme-3M
  GI50: > 100 µM (inactive)
KM-20L2
  GI50: 80.7 µM (inactive)
NCI-H522
  GI50: 79.6 µM (inactive)
HOP-18
  GI50: > 100 µM (inactive)
U-251
  GI50: > 100 µM (inactive)
SNB-75
  GI50: 33.9 µM (inactive)
OVCAR-4
  GI50: > 100 µM (inactive)

## CC/C(=N/O)C(C)C(=O)CCC(=O)Nc1ccc(Cl)cc1 (centres undefined)
SK-MEL-5
  GI50: > 100 µM (inactive)
K562
  GI50: 57.1 µM (inactive)
HCT-116
  GI50: > 100 µM (inactive)
M19-MEL
  GI50: > 100 µM (inactive)
M14
  GI50: > 100 µM (inactive)
XF498
  GI50: > 100 µM (inactive)
RPMI-8226
  GI50: > 100 µM (inactive)
SF-295
  GI50: > 100 µM (inactive)
UO-31
  GI50: > 100 µM (inactive)
SK-MEL-2
  GI50: > 100 µM (inactive)
LOX IMVI
  GI50: > 100 µM (inactive)
A549
  GI50: > 100 µM (inactive)
OVCAR-8
  GI50: > 100 µM (inactive)
CAKI-1
  GI50: > 100 µM (inactive)
SNB-19
  GI50: > 100 µM (inactive)
EKVX
  GI50: > 100 µM (inactive)
DMS-273
  GI50: > 100 µM (inactive)
HCT-15
  GI50: 26.9 µM
SK-MEL-28
  GI50: > 100 µM (inactive)
HCC 2998
  GI50: > 100 µM (inactive)
HL-60
  GI50: > 100 µM (inactive)
NCI-H226
  GI50: > 100 µM (inactive)
NCI-H23
  GI50: > 100 µM (inactive)
A498
  GI50: > 100 µM (inactive)
KM12
  GI50: > 100 µM (inactive)
SK-OV-3
  GI50: > 100 µM (inactive)
CCRF-CEM
  GI50: > 100 µM (inactive)
LXFL 529
  GI50: 54.3 µM (inactive)
HT-29
  GI50: > 100 µM (inactive)
TK-10
  GI50: > 100 µM (inactive)
ACHN
  GI50: 68.4 µM (inactive)
MOLT-4
  GI50: > 100 µM (inactive)
COLO 205
  GI50: > 100 µM (inactive)
OVCAR-3
  GI50: > 100 µM (inactive)
DMS-114
  GI50: > 100 µM (inactive)
IGROV-1
  GI50: > 100 µM (inactive)
UACC-257
  GI50: > 100 µM (inactive)
SF-539
  GI50: > 100 µM (inactive)
SW-620
  GI50: > 100 µM (inactive)
UACC-62
  GI50: 28.2 µM (inactive)
RXF 393
  GI50: > 100 µM (inactive)
SF-268
  GI50: > 100 µM (inactive)
SNB-78
  GI50: > 100 µM (inactive)
NCI-H460
  GI50: > 100 µM (inactive)
786-0
  GI50: > 100 µM (inactive)
SN12C
  GI50: > 100 µM (inactive)
OVCAR-5
  GI50: > 100 µM (inactive)
DLD-1
  GI50: > 100 µM (inactive)
Malme-3M
  GI50: > 100 µM (inactive)
KM-20L2
  GI50: > 100 µM (inactive)
HOP-18
  GI50: > 100 µM (inactive)
U-251
  GI50: > 100 µM (inactive)
SNB-75
  GI50: 49.9 µM (inactive)
OVCAR-4
  GI50: > 100 µM (inactive)
